Earlier results in publication PMC10698726 (Molecular Pharmaceutics, 2023).

Assays:
OCT1 = test system: OCT1; parameters: method as in PMID 34884800; conditions: cited from earlier work
OCT2 = test system: OCT2; parameters: method as in PMID 34884800; conditions: cited from earlier work

## CCCC(C(=O)c1ccccc1)N1CCCC1 (stereo not drawn) [α-pyrrolidinovalerophenone]
OCT1
  difference in the inhibition of OCT1 between enantiomers: twofold difference
OCT2
  difference in the inhibition of OCT2 between enantiomers: no difference
